The text below walks through data of US20110117017A1, “PEPTIDES WITH PROPERTIES OF AN […] FOR THE ALPHA 1A […] RECEPTOR AND USES THEREOF” (priority 2006, published 2011).

The target of one assay is T1, α2a adrenergic receptor (Homo sapiens, UniProt P08913).
T1 construct: made in house; host or cells: Pichia pastoris (membranes)
T1 sequence (P08913 1-465): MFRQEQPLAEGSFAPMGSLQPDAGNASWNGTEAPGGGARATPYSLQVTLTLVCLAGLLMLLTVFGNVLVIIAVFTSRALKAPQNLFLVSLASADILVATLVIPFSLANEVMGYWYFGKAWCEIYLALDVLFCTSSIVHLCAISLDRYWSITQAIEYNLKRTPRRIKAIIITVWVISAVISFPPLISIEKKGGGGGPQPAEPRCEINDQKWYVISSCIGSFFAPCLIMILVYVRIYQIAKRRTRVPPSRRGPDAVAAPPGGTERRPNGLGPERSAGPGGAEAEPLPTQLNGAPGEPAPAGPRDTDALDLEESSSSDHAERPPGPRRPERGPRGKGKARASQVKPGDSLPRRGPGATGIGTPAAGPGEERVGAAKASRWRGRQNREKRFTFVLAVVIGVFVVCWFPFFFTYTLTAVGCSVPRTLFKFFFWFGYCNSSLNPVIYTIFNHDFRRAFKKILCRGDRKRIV
Nature of the assay: displacement of 3H-rauwolscine binding to the alpha2a subtype (yeast membranes).

Assay [1] addresses T2, alpha1a adrenergic receptor (Homo sapiens, UniProt P35348).
T2 sequence (P35348 1-466): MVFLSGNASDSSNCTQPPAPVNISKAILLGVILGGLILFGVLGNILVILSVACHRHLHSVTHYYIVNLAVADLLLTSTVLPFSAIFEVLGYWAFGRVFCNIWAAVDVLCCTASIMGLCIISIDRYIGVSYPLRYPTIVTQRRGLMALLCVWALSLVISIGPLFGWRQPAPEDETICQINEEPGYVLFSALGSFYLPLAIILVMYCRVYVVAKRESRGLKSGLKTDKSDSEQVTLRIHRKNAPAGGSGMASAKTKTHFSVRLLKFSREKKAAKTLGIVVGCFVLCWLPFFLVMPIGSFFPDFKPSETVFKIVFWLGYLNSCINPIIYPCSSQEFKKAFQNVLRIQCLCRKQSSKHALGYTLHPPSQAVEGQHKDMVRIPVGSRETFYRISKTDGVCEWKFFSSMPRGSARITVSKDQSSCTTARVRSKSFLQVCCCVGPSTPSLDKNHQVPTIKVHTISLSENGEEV

The target of a further assay is T3, beta1 receptor (Homo sapiens, UniProt P08588).
T3 construct: made in house; host or cells: Pichia pastoris (membranes)
T3 sequence (P08588 whole entry): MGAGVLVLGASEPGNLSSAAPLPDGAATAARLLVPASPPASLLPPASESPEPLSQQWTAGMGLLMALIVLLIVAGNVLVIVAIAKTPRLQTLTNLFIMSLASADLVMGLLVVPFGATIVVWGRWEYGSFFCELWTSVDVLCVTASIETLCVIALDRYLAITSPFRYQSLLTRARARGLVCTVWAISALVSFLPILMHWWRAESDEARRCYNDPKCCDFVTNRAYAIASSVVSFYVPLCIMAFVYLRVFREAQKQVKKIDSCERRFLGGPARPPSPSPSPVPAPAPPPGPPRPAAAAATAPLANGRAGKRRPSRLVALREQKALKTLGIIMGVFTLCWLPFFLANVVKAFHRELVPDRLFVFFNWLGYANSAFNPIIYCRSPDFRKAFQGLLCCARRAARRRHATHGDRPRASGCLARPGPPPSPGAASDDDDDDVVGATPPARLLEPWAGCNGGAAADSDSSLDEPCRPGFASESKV
The experiment in a line: displacement of 3H-CGP12177 binding to the beta1 receptor (yeast membranes).

The target of assay [2] is T2, alpha1a adrenergic receptor. The experiment in a line: hot saturation of 125I-AdTx1 on yeast membranes expressing the alpha1a adrenergic receptor.
Method: The analysis of the saturation of the alpha1a adrenergic receptor with AdTx1 is carried out by incubating increasing concentrations of the iodinated peptide in the presence of 20 μg of membranes containing the alpha1a adrenergic receptor, for 20 h, and then measuring the radioactivity as above.
In the next assay the target is T4, alpha1b receptor (Homo sapiens, UniProt P35368).
T4 construct: made in house; host or cells: Pichia pastoris (membranes)
T4 sequence (P35368 1-520): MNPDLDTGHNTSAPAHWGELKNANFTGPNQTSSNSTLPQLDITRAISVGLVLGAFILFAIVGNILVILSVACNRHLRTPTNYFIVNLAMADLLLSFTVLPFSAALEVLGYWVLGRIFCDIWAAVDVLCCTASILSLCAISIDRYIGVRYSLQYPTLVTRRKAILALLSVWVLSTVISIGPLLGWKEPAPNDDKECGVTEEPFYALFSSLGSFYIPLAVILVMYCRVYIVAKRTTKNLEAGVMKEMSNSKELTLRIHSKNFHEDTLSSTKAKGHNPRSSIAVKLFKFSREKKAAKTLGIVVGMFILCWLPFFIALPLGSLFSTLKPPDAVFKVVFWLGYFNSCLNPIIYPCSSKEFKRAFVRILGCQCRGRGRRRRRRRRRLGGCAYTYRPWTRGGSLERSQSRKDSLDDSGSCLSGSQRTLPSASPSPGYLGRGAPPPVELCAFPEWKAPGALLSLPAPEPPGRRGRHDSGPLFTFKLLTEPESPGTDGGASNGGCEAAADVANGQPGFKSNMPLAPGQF
The experiment in a line: displacement of 3H-prazosin binding to the alpha1b receptor (yeast membranes).

For the next assay, the target named is T5, alpha1d receptor (Homo sapiens, UniProt P25100).
T5 construct: made in house; host or cells: Pichia pastoris (membranes)
T5 sequence (P25100 1-572): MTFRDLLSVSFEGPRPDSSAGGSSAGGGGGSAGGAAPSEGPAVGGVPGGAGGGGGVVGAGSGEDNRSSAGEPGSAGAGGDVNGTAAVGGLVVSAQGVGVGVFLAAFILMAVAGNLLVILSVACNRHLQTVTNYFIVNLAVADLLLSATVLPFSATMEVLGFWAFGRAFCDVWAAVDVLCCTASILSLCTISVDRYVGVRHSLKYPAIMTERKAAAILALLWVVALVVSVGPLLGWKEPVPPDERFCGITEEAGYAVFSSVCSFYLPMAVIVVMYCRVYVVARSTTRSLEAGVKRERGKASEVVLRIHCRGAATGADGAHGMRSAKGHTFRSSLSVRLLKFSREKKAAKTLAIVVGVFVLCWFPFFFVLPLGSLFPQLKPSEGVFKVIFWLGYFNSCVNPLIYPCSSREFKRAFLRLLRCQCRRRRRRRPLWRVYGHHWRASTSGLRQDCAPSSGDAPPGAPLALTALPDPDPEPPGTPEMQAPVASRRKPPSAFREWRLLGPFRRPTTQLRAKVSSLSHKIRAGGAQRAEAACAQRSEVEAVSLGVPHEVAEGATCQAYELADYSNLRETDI
Nature of the assay: displacement of 3H-prazosin binding to the alpha1d receptor (yeast membranes).

For a further assay, the target named is T6, alpha1a receptor (Homo sapiens, UniProt P35348).
T6 construct: made in house; host or cells: Pichia pastoris (membranes)
T6 sequence (P35348 1-466): T2 sequence (P35348 1-466)
Nature of the assay: displacement of 3H-prazosin binding to the alpha1a receptor (yeast membranes).

Where only a bound is given, the exact number is not on record here.

In the case of `CC[C@H](C)[C@@H]1NC(=O)CNC(=O)[C@H](Cc2ccccc2)NC(=O)[C@H]([C@@H](C)CC)NC(=O)[C@H](CO)NC(=O)[C@H](CCCCN)NC(=O)[C@H](CO)NC(=O)[C@H]([C@@H](C)O)NC(=O)[C@H](C(C)C)NC(=O)[C@@H](NC(=O)[C@@H](NC(=O)[C@@H](N)CC(C)C)[C@@H](C)O)CSSC[C@@H]2NC(=O)[C@H](CC(C)C)NC(=O)[C@H](CC(N)=O)NC(=O)[C@H](CCC(N)=O)NC(=O)CNC(=O)[C@H](CC(=O)O)NC(=O)[C@@H]3CCCN3C(=O)[C@H](CSSC[C@@H](C(=O)N[C@@H](C)C(=O)N[C@@H](C)C(=O)N[C@H](C(=O)N[C@H]3CSSC[C@@H](C(=O)N[C@H]4CSSC[C@@H](C(=O)N[C@@H](CC(N)=O)C(=O)N[C@@H](CCC(=O)O)C(=O)O)NC(=O)[C@H](CCCCN)NC(=O)[C@H](CC(=O)O)NC(=O)[C@H]([C@@H](C)O)NC(=O)[C@H](CCCCN)NC4=O)NC(=O)[C@H](Cc4c[nH]cn4)NC(=O)[C@H]([C@@H](C)CC)NC(=O)[C@H](CO)NC(=O)[C@H](CC(=O)O)NC(=O)[C@H](Cc4ccc(O)cc4)NC(=O)[C@H](CC(N)=O)NC(=O)[C@H](CCC(=O)O)NC(=O)[C@@H]4CCCN4C(=O)[C@H]([C@@H](C)CC)NC(=O)[C@@H]4CCCN4C3=O)[C@@H](C)O)NC(=O)CNC(=O)[C@H](CCCNC(=N)N)NC(=O)[C@H]([C@@H](C)O)NC(=O)[C@H](CO)NC(=O)[C@H](CC(=O)O)NC(=O)[C@H](Cc3ccc(O)cc3)NC(=O)[C@H]([C@@H](C)CC)NC(=O)[C@H](CCCCN)NC(=O)[C@@H]3CCCN3C(=O)[C@H](C(C)C)NC(=O)[C@H](C(C)C)NC(=O)[C@H](Cc3ccc(O)cc3)NC(=O)[C@H](Cc3c[nH]cn3)NC(=O)[C@H](CCCNC(=N)N)NC(=O)[C@H](CCCNC(=N)N)NC(=O)[C@H](CCCCN)NC(=O)[C@H](Cc3ccccc3)NC2=O)NC(=O)[C@H](CC(=O)O)NC(=O)[C@H](CCC(=O)O)NC(=O)[C@H]([C@@H](C)O)NC(=O)[C@H]([C@@H](C)O)NC1=O` [AdTx1], the IC50 is greater than 50000 nM at α2a adrenergic receptor; 0.5 nM in assay [1]; greater than 50000 nM at beta1 receptor; 2300 nM at alpha1b receptor; 9900 nM on alpha1d receptor; 1.8 nM on alpha1a receptor. The compound also came in with a Kd in assay [2] of 0.8 ± 0.2 nM.
